Among the data in patent publication US20090325964A1, “Piperazine Metabotropic Glutamate Receptor 5 (MGLUR5) Negative Allosteric Modulators For Anxiety/Depression” (Wyeth, priority 2008, published 2009) are inhibition, Ki and IC50 values, retold here.

This assay concerns the target T1, rat mGluR5 receptor (Rattus norvegicus, UniProt P31424).
T1 construct: expressed in transfected cells; host or cells: HEK-293
In words: [3H]-MPEP displacement binding assay, HEK-293 cell membranes expressing rat mGluR5. The conditions noted are these: for pKi: read-out: Median Ki; for pIC50: bound printed in place of a Ki, read-out: IC50 (printed in the Median Ki column). Summed up: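 Membranes from HEK-293 cells expressing rat mGluR5 (12-25 μg protein), incubated 60 min at room temperature with 4 nM [3H]-MPEP in 50 mM Tris pH 7.5, then filtered. Nonspecific binding defined with 10 μM MPEP.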

[1] abbreviates: single point, @ 10 μM compound, Table 5, read-out: PCT INHIB (%) @ 10 μM.
Setting [2] is: 1 h, single point, @ 10 μm compound, Table 1A, read-out: PCT INHIB (%) @ 10 μm.
Where [3] appears, read: [3H]-MPEP displacement, rat mGluR5.
The mark [4] stands for this setting: @ 10 μM compound, Biological Activity, Table 2A, read-out: PCT INHIB (%) @ 10 μM.
The mark [5] stands for this setting: [3H]-MPEP displacement, rat mGluR5 membranes.
The mark [6] stands for this setting: single point, @ 10 μM compound, Table 3A, read-out: PCT INHIB (%) @ 10 μM.

pIC50, pKi: −log10 of the molar value. Where two headings read alike, the source gives them in different places. Some results are limits rather than exact numbers.

T1 sequence (P31424 21-1203): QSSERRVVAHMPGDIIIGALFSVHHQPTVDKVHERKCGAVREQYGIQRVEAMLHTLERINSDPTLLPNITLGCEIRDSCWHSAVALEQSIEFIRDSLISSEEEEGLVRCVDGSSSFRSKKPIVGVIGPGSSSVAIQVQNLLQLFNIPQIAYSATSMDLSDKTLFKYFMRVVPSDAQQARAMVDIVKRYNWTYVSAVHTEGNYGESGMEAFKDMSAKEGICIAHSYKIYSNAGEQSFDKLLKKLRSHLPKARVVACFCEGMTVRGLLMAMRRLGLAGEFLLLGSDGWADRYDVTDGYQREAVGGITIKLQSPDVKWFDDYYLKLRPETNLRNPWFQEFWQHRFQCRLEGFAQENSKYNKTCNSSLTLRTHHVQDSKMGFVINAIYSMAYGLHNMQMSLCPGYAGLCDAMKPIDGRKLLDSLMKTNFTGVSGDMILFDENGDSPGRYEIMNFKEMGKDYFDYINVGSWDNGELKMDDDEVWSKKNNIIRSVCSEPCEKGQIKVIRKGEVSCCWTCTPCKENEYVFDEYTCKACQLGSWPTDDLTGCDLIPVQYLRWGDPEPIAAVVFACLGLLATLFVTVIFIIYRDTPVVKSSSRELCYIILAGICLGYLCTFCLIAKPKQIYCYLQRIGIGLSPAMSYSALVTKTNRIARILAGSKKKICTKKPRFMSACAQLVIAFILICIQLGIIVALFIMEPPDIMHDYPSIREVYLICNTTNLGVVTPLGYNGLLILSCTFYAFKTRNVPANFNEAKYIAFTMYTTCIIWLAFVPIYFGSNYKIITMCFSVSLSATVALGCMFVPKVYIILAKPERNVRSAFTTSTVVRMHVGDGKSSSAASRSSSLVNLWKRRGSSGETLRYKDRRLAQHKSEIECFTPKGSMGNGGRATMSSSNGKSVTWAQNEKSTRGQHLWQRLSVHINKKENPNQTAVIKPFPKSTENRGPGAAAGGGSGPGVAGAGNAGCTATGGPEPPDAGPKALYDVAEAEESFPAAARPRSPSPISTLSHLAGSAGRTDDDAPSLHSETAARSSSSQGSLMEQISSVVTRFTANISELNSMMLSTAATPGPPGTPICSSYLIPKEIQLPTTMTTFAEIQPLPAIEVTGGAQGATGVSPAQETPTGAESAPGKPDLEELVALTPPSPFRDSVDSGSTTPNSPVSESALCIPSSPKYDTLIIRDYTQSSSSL

On to `O=S(=O)(c1cccc(C#CCc2ccccc2)c1)N1CCN(c2ccccn2)CC1` [Compound 174, 1-{[3-(3-phenylprop-1-yn-1-yl)phenyl]sulfonyl}-4-pyridin-2-ylpiperazine], for which, under setting [1], the inhibition at 10 µM worked out at 0%.
Turning to `O=C(c1cccc(C#CC2(O)CCCCC2)c1)N1CCN(c2ccccn2)CC1` [Compound 12, 1-({3-[(4-pyridin-2-ylpiperazin-1-yl)carbonyl]phenyl}ethynyl)cyclohexanol], the inhibition at 10 µM under setting [2] stood at 0%.
One may read the pKi as the Ki on a negative log10 scale, so that one unit is a factor of ten. For the molecule `COc1ccc(C(=O)N2CCN(c3ncccc3Cl)CC2)cc1C#Cc1ccc(Cl)cc1` [Compound 352, 1-{3-[(4-chlorophenyl)ethynyl]-4-methoxybenzoyl}-4-(3-chloropyridin-2-yl)piperazine], under setting [3], the pKi was 5.50.
Take `O=C(c1ccc(F)c(C#Cc2ccccc2)c1)N1CCN(c2ccccn2)CC1` [Compound 89, 1-[4-fluoro-3-(phenylethynyl)benzoyl]-4-pyridin-2-ylpiperazine]: the inhibition at 10 µM under setting [4] turned out to be 51%. The pKi (Biological Activity, Table 2A) was 7.30.
For `O=C(c1cccc(C#Cc2ccccc2)c1)N1CCN(c2ccc(Cl)cc2)CC1` [Compound 72, 1-(4-chlorophenyl)-4-[3-(phenylethynyl)benzoyl]piperazine], the inhibition at 10 µM under setting [4] came out at 30%.
In the case of `O=C(c1cccc(C#Cc2ccccn2)c1)N1CCN(c2ncc(C(F)(F)F)cc2Cl)CC1` [Compound 149, 1-[3-chloro-5-(trifluoromethyl)pyridin-2-yl]-4-[3-(pyridin-2-ylethynyl)benzoyl]piperazine], under setting [4], the inhibition at 10 µM amounted to 72%. The pKi (Biological Activity, Table 2A) is 5.56.
The term pIC50 denotes −log10 of the IC50, conventionally taken in molar units. Turning to `O=C(c1ccc(C(F)(F)F)c(C#Cc2ccccn2)c1)N1CCN(c2nc3ccccc3s2)CC1` [Compound 377, 2-(4-{[3-(pyridin-2-ylethynyl)-4-(trifluoromethyl)phenyl]carbonyl}piperazin-1-yl)-1,3-benzothiazole], the pIC50 is below 5.00.
Take `O=C(c1cncc(C#Cc2ccccc2)c1)N1CCN(c2ccncc2)CC1` [Compound 138, 1-{[5-(phenylethynyl)pyridin-3-yl]carbonyl}-4-pyridin-4-ylpiperazine]: under setting [4], the inhibition at 10 µM is 0%.
For the molecule `O=C(c1ccc(C(F)(F)F)c(C#Cc2ccccn2)c1)N1CCN(c2cnccn2)CC1` [Compound 381, 2-(4-{[3-(pyridin-2-ylethynyl)-4-(trifluoromethyl)phenyl]carbonyl}piperazin-1-yl)pyrazine], the negative logarithm of the Ki (pKi) under setting [5] was 6.79.
For the molecule `Cc1cc(C)nc(N2CCN(C(=O)c3cccc(C#Cc4ccccc4)c3)CC2)n1` [Compound 111, 4,6-dimethyl-2-{4-[3-(phenylethynyl)benzoyl]piperazin-1-yl}pyrimidine], under setting [4], the inhibition at 10 µM was 0%.
With `N#Cc1cccnc1N1CCN(C(=O)c2cccc(C#Cc3ccccc3)c2)CC1` [Compound 141, 2-{4-[3-(phenylethynyl)benzoyl]piperazin-1-yl}nicotinonitrile], the inhibition at 10 µM under setting [4] came out at 78%. The pKi (Biological Activity, Table 2A) is 5.96.
In the case of `O=C(c1cccc(COc2ccccn2)c1)N1CCN(c2ccccn2)CC1` [Compound 170, 1-pyridin-2-yl-4-{3-[(pyridin-2-yloxy)methyl]benzoyl}piperazine], the pKi ([3H]-MPEP 4 nM, Table 4A) was below 5.00.
In the case of `Cc1cccc(C#Cc2cc(C(=O)N3CCN(c4cnccn4)CC3)ccc2C)c1` [Compound 59, 2-(4-{4-methyl-3-[(3-methylphenyl)ethynyl]benzoyl}piperazin-1-yl)pyrazine], the pKi is 7.20. For the same molecule, the inhibition at 10 µM under setting [2] amounted to 100%.
Consider `CSc1ccccc1N1CCN(C(=O)c2cccc(C#Cc3ccccc3)c2)CC1` [Compound 80, 1-[2-(methylthio)phenyl]-4-[3-(phenylethynyl)benzoyl]piperazine], for which the inhibition at 10 µM under setting [4] was determined as 24%.
On to `O=C(c1ccc(OCC2CC2)c(C#Cc2ccccn2)c1)N1CCN(c2ccccn2)CC1` [Compound 323, 1-{[4-(cyclopropylmethoxy)-3-(pyridin-2-ylethynyl)phenyl]carbonyl}-4-pyridin-2-ylpiperazine], for which, under setting [3], the pKi is 6.70.
Turning to `O=C(c1cccc(C#Cc2ccc(Cl)cc2)c1)N1CCN(c2ccccn2)CC1` [Compound 3, 1-{3-[(4-chlorophenyl)ethynyl]benzoyl}-4-pyridin-2-ylpiperazine], the inhibition at 10 µM under setting [2] is 45%.
Turning to `Cc1ccc(C(=O)N2CCN(c3ccccn3)CC2)cc1C#Cc1cccc(N)c1` [Compound 36, 3-({2-methyl-5-[(4-pyridin-2-ylpiperazin-1-yl)carbonyl]phenyl}ethynyl)aniline], the pKi was 6.32. In addition, the inhibition at 10 µM under setting [2] amounted to 79%.
For `Cc1ccc(C(=O)N2CCN(c3ccccn3)CC2)cc1C#Cc1cccc(C(F)(F)F)c1` [Compound 27, 1-(4-methyl-3-{[3-(trifluoromethyl)phenyl]ethynyl}benzoyl)-4-pyridin-2-ylpiperazine], in that order: 6.33 and 81%.
For `COc1ccc(C(=O)N2CCN(c3cnccn3)CC2)cc1C#CCc1ccccc1` [Compound 51, 2-{4-[4-methoxy-3-(3-phenylprop-1-yn-1-yl)benzoyl]piperazin-1-yl}pyrazine], in that order: 7.47 and 92%.
Take `O=C(c1ccc(C(F)(F)F)c(C#Cc2ccccn2)c1)N1CCN(c2ncc(Cl)cc2Cl)CC1` [Compound 368, 1-(3,5-dichloropyridin-2-yl)-4-{[3-(pyridin-2-ylethynyl)-4-(trifluoromethyl)phenyl]carbonyl}piperazine]: under setting [5], the pKi is 5.53.
On to `Cc1ccc(N2CCN(C(=O)c3cccc(C#Cc4ccccc4)c3)CC2)cc1` [Compound 73, 1-(4-methylphenyl)-4-[3-(phenylethynyl)benzoyl]piperazine], for which the inhibition at 10 µM under setting [4] turned out to be 0%.
On to `COc1ccc(C(=O)N2CCN(c3ccc(C(F)(F)F)cn3)CC2)cc1C#Cc1ccccc1` [Compound 114, 1-[4-methoxy-3-(phenylethynyl)benzoyl]-4-[5-(trifluoromethyl)pyridin-2-yl]piperazine], for which, under setting [4], the inhibition at 10 µM stood at 26%.
Regarding `O=C(c1cccc(C#CC2=CCCCC2)c1)N1CCN(c2ccccn2)CC1` [Compound 8, 1-[3-(cyclohex-1-en-1-ylethynyl)benzoyl]-4-pyridin-2-ylpiperazine], the pKi was 5.92. Besides, the inhibition at 10 µM under setting [2] worked out at 78%.
Consider `COc1ccc(C(=O)N2CCN(c3cc(C)ccn3)CC2)cc1C#Cc1ccccc1` [Compound 115, 1-[4-methoxy-3-(phenylethynyl)benzoyl]-4-(4-methylpyridin-2-yl]piperazine], for which the inhibition at 10 µM under setting [4] turned out to be 93%. The pKi (Biological Activity, Table 2A) is 8.50.
Consider `COc1ccc(C(=O)N2CCN(c3nnc([N+](=O)[O-])s3)CC2)cc1C#Cc1ccccn1` [Compound 276, 1-[4-methoxy-3-(pyridin-2-ylethynyl)benzoyl]-4-(5-nitro-1,3,4-thiadiazol-2-yl)piperazine], for which the pKi under setting [3] was 6.86.
With `O=S(=O)(c1cccc(C#Cc2ccccc2)c1)N1CCN(c2ccccn2)CC1` [Compound 176, 1-{[3-(phenylethynyl)phenyl]sulfonyl}-4-pyridin-2-ylpiperazine], the inhibition at 10 µM under setting [1] is 0%.
Regarding `COc1ccc(C(=O)N2CCN(c3ncccn3)CC2)cc1C#Cc1cccc(OC(F)(F)F)c1` [Compound 356, 2-[4-(4-methoxy-3-{[3-(trifluoromethoxy)phenyl]ethynyl}benzoyl)piperazin-1-yl]pyrimidine], the pKi under setting [3] was 6.54.
`O=C(c1ccnc(C#Cc2ccccc2)c1)N1CCN(c2cnccn2)CC1` [Compound 127, 2-{4-[2-(phenylethynyl)isonicotinoyl]piperazin-1-yl}pyrazine]: the inhibition at 10 µM under setting [4] is 36%.
`COc1cccc(OCc2cccc(C(=O)N3CCN(c4ccccn4)CC3)c2)c1` [Compound 167, 1-{3-[(3-methoxyphenoxy)methyl]benzoyl}-4-pyridin-2-ylpiperazine]: the pKi ([3H]-MPEP 4 nM, Table 4A) was below 5.00.
For the molecule `N#Cc1cccnc1N1CCN(C(=O)c2cncc(C#Cc3ccccc3)c2)CC1` [Compound 135, 2-(4-{[5-(phenylethynyl)pyridin-3-yl]carbonyl}piperazin-1-yl)nicotinonitrile], under setting [4], the inhibition at 10 µM was 28%.
With `COc1nc(N2CCN(C(=O)c3ccc(C(F)(F)F)c(C#Cc4ccccn4)c3)CC2)ncc1Br` [Compound 365, 5-bromo-4-methoxy-2-(4-{[3-(pyridin-2-ylethynyl)-4-(trifluoromethyl)phenyl]carbonyl}piperazin-1-yl)pyrimidine], the pIC50 was below 5.00.
In the case of `O=C(c1cccc(OCc2cccc(Br)c2)c1)N1CCN(c2ccccn2)CC1` [Compound 153, 1-{3-[(3-bromobenzyl)oxy]benzoyl}-4-pyridin-2-ylpiperazine], the inhibition at 10 µM under setting [6] is 23%.
As to `COc1ccc(C(=O)N2CCN(c3ccccc3C(F)(F)F)CC2)cc1C#Cc1ccccn1` [Compound 246, 1-[4-methoxy-3-(pyridin-2-ylethynyl)benzoyl]-4-[2-(trifluoromethyl)phenyl]piperazine], the pKi under setting [3] was 5.55.
As for `COc1ccc(C(=O)N2CCCN(c3ncc(C(F)(F)F)cc3Cl)CC2)cc1C#Cc1ccccn1` [Compound 212, 1-[3-chloro-5-(trifluoromethyl)pyridin-2-yl]-4-[4-methoxy-3-(pyridin-2-ylethynyl)benzoyl]-1,4-diazepane], the pKi under setting [3] was 6.15.
`COc1cccc(COc2cc(C(=O)N3CCN(c4ccccn4)CC3)ccc2OC)c1` [Compound 161, 1-{4-methoxy-3-[(3-methoxybenzyl)oxy]benzoyl}-4-pyridin-2-ylpiperazine]: the inhibition at 10 µM under setting [6] is 0%.
